Laboratory results published in ChEMBL document CHEMBL3526086, “Identification of the oxidative and conjugative enzymes involved in the biotransformation of brivanib” (Drug Metab Dispos, 2012).

Assays:
Type in all cases: ADME
[1] = biological target: T1, Cytochrome P450 2A6 (Homo sapiens, UniProt P11509); assay: Drug metabolism in human liver microsomes assessed as 2 uM tranylcypromine-mediated inhibition of CYP2A6-mediated (R)-1-(4-(4-fluoro-2-(hydroxymethyl)-1H-indol-5-yloxy)-5-methylpyrrolo[1,2-f][1,2,4]triazin-6-yloxy)propan-2-ol formation at 2 and 20 uM for 30 mins by LC/MS analysis; conditions: 0.5 h
T1 sequence (P11509 whole entry): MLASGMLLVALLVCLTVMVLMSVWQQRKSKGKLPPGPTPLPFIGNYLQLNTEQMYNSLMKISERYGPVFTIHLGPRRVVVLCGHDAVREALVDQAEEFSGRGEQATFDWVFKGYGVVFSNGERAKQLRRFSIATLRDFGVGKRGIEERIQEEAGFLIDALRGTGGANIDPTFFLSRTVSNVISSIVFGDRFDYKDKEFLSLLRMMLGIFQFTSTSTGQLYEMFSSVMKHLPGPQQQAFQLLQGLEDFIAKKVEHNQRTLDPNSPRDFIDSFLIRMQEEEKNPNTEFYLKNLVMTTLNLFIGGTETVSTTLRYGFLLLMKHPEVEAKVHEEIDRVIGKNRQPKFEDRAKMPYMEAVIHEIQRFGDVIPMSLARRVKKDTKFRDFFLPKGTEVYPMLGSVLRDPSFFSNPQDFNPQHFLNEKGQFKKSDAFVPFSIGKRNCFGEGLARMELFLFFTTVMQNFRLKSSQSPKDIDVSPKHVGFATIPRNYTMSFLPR

[2] = biological target: T2, Cytochrome P450 2C8 (Homo sapiens, UniProt P10632); assay: Drug metabolism in human liver microsomes assessed as 3 uM montekulast-mediated inhibition of CYP2C8-mediated (R)-1-(4-(4-fluoro-2-(hydroxymethyl)-1H-indol-5-yloxy)-5-methylpyrrolo[1,2-f][1,2,4]triazin-6-yloxy)propan-2-ol formation at 2 and 20 uM for 30 mins by LC/MS analysis; conditions: 0.5 h
T2 sequence (P10632 whole entry): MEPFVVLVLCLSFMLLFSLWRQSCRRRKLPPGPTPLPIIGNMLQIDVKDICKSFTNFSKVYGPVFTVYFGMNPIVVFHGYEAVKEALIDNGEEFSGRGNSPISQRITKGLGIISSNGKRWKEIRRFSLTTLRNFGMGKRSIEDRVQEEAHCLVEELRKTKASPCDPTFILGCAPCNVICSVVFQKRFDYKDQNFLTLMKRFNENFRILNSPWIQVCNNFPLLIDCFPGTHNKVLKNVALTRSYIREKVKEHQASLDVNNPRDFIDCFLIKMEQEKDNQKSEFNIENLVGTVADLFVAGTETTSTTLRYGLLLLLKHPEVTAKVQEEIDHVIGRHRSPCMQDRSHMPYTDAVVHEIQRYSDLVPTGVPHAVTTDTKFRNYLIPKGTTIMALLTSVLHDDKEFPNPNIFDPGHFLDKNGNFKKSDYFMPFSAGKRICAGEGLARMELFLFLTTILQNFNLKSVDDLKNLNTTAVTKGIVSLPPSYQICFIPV

[3] = biological target: T3, Cytochrome P450 2D6 (Homo sapiens, UniProt P10635); assay: Drug metabolism assessed as human CYP2D6-mediated (R)-1-(4-(4-fluoro-2-(hydroxymethyl)-1H-indol-5-yloxy)-5-methylpyrrolo[1,2-f][1,2,4]triazin-6-yloxy)propan-2-ol formation at 2 and 20 uM for 20 mins by LC/MS analysis in presence of NADPH; conditions: recombinant enzyme
T3 sequence (P10635 whole entry): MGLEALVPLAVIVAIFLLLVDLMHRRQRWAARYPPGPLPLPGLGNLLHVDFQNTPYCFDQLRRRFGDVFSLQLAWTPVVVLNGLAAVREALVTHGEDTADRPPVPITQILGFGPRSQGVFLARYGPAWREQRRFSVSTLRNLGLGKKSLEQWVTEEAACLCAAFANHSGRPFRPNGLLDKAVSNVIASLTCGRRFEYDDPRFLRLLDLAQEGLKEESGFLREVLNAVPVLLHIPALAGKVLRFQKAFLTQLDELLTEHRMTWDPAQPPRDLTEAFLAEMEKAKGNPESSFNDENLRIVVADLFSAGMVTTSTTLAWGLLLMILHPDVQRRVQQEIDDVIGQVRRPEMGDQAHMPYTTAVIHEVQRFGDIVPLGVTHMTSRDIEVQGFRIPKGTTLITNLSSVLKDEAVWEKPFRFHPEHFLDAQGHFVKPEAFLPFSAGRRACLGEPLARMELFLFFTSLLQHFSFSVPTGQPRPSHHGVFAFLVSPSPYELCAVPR

[4] = biological target: Cytochrome P450 3A5 (Homo sapiens, UniProt P20815); assay: Drug metabolism assessed as human CYP3A5-mediated (R)-1-(4-(4-fluoro-2-(hydroxymethyl)-1H-indol-5-yloxy)-5-methylpyrrolo[1,2-f][1,2,4]triazin-6-yloxy)propan-2-ol formation at 2 and 20 uM for 20 mins by LC/MS analysis in presence of NADPH; conditions: recombinant enzyme
Cytochrome P450 3A5, sequence (P20815 whole entry): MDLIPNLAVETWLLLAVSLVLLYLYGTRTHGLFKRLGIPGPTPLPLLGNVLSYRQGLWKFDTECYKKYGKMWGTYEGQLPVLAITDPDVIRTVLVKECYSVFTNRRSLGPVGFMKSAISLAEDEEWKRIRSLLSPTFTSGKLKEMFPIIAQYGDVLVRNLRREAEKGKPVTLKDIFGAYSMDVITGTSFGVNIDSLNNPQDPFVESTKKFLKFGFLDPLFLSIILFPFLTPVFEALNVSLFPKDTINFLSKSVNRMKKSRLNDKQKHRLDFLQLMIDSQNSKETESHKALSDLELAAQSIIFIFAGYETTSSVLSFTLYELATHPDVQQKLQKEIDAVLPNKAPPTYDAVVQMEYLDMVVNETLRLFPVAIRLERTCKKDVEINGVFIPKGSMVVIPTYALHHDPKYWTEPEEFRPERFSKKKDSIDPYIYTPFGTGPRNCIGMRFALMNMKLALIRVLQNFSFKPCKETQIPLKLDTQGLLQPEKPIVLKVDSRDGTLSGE

[5] = biological target: Cytochrome P450 2C19 (Homo sapiens, UniProt P33261); assay: Drug metabolism assessed as human CYP2C19-mediated (R)-1-(4-(4-fluoro-2-(hydroxymethyl)-1H-indol-5-yloxy)-5-methylpyrrolo[1,2-f][1,2,4]triazin-6-yloxy)propan-2-ol formation at 2 and 20 uM for 20 mins by LC/MS analysis in presence of NADPH; conditions: recombinant enzyme
Cytochrome P450 2C19, sequence (P33261 whole entry): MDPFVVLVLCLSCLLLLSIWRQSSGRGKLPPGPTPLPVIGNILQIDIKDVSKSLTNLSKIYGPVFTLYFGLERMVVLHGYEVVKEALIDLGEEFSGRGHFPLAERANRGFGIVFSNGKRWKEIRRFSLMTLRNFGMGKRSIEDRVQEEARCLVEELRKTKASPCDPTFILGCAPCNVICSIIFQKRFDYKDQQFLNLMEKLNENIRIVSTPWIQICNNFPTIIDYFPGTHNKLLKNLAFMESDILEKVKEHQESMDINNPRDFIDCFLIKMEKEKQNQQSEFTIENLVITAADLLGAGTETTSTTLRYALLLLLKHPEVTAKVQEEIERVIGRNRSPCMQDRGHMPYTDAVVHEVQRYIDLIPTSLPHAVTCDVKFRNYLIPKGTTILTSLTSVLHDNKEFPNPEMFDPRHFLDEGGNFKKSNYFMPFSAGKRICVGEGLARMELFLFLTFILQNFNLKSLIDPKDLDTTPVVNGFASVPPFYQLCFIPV

[6] = biological target: T2, Cytochrome P450 2C8; assay: Drug metabolism assessed as human CYP2C8-mediated (R)-1-(4-(4-fluoro-2-(hydroxymethyl)-1H-indol-5-yloxy)-5-methylpyrrolo[1,2-f][1,2,4]triazin-6-yloxy)propan-2-ol formation at 2 and 20 uM for 20 mins by LC/MS analysis in presence of NADPH; conditions: recombinant enzyme
[7] = biological target: Cytochrome P450 1A1 (Homo sapiens, UniProt P04798); assay: Drug metabolism assessed as human CYP1A1-mediated (R)-1-(4-(4-fluoro-2-(hydroxymethyl)-1H-indol-5-yloxy)-5-methylpyrrolo[1,2-f][1,2,4]triazin-6-yloxy)propan-2-ol formation at 2 and 20 uM for 20 mins by LC/MS analysis in presence of NADPH; conditions: recombinant enzyme
Cytochrome P450 1A1, sequence (P04798 whole entry): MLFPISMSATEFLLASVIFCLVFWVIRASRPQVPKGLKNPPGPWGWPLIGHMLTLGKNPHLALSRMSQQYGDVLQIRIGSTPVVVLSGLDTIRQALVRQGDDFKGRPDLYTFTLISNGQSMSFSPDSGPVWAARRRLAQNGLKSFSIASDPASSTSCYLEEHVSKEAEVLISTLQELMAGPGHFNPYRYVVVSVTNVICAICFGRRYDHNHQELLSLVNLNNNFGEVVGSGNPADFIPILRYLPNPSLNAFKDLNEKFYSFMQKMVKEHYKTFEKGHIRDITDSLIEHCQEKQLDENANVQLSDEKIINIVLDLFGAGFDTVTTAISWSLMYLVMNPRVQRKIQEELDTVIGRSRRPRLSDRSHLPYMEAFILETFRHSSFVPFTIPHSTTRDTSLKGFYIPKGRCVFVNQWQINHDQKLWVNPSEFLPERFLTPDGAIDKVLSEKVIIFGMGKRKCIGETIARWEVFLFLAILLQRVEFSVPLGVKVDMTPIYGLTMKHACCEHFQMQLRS

[8] = Activity of CYP3A4/CYP1A2 in human liver microsomes assessed as enzyme-mediated (R)-1-(4-(4-fluoro-2-(hydroxymethyl)-1H-indol-5-yloxy)-5-methylpyrrolo[1,2-f][1,2,4]triazin-6-yloxy)propan-2-ol formation per mg protein in presence of NADPH
[9] = Activity of CYP3A4/CYP1A2 in human liver microsomes assessed as intrinsic clearance for enzyme-mediated (R)-1-(4-(4-fluoro-2-(hydroxymethyl)-1H-indol-5-yloxy)-5-methylpyrrolo[1,2-f][1,2,4]triazin-6-yloxy)propan-2-ol formation per mg protein in presence of NADPH
[10] = tested on: Liver microsome; assay: Drug level in human liver microsomes assessed as compound formation treated with 2 uM [14C]brivanib alaninate for 60 mins by LC/MS analysis; conditions: 1 h
[11] = biological target: Sulfotransferase 1A1 (Homo sapiens, UniProt P50225); assay: Drug metabolism assessed as human SULT1A1-mediated (R)-1-(4-(4-fluoro-2-methyl-1H-indol-5-yloxy)-5-methylpyrrolo[1,2-f][1,2,4]triazin-6-yloxy)propane-2-sulfonic acid formation at 2 and 20 uM for 30 mins by LC/MS analysis in presence of PAPS; conditions: 0.5 h
Sulfotransferase 1A1, sequence (P50225 whole entry): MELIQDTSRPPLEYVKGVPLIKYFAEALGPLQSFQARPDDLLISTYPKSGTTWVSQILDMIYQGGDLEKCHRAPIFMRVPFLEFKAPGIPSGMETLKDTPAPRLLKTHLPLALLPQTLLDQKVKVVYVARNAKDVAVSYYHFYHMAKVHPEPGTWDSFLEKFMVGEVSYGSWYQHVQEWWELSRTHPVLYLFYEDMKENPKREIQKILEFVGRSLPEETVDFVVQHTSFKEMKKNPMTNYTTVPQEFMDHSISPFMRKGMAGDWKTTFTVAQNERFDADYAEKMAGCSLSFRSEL

[12] = biological target: T1, Cytochrome P450 2A6; assay: Drug metabolism in human liver microsomes assessed as monoclonal antibody-mediated inhibition of CYP2A6-mediated (R)-1-(4-(4-fluoro-2-(hydroxymethyl)-1H-indol-5-yloxy)-5-methylpyrrolo[1,2-f][1,2,4]triazin-6-yloxy)propan-2-ol formation at 2 and 20 uM for 30 mins by LC/MS analysis; conditions: 0.5 h
[13] = biological target: T3, Cytochrome P450 2D6; assay: Drug metabolism in human liver microsomes assessed as monoclonal antibody-mediated inhibition of CYP2D6-mediated(R)-1-(4-(4-fluoro-2-(hydroxymethyl)-1H-indol-5-yloxy)-5-methylpyrrolo[1,2-f][1,2,4]triazin-6-yloxy)propan-2-ol formation at 2 and 20 uM for 30 mins by LC/MS analysis; conditions: 0.5 h
[14] = biological target: Cytochrome P450 2E1 (Homo sapiens, UniProt P05181); assay: Drug metabolism in human liver microsomes assessed as monoclonal antibody-mediated inhibition of CYP2E1-mediated (R)-1-(4-(4-fluoro-2-(hydroxymethyl)-1H-indol-5-yloxy)-5-methylpyrrolo[1,2-f][1,2,4]triazin-6-yloxy)propan-2-ol formation at 2 and 20 uM for 30 mins by LC/MS analysis; conditions: 0.5 h
Cytochrome P450 2E1, sequence (P05181 whole entry): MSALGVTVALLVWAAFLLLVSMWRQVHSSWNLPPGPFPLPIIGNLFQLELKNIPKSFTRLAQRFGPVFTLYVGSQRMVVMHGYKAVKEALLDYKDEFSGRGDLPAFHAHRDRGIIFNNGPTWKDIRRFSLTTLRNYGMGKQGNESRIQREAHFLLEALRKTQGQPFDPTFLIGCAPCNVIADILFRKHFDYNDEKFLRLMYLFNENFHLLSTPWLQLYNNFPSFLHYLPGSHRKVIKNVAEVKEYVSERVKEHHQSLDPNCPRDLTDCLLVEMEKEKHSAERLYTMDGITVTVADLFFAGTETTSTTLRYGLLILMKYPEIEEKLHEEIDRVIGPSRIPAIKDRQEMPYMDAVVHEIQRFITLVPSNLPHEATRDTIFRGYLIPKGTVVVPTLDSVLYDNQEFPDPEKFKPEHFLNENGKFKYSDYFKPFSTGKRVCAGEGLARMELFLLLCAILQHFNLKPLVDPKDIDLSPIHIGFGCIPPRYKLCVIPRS

Cc1cc2c(F)c(Oc3ncnn4cc(OC[C@@H](C)O)c(C)c34)ccc2[nH]1 [BRIVANIB]
3.1 µL/min/mg: CLint [9]
89.1 pmol/min: Vmax [8]
metabolite_detected: Drug metabolism [1] | Drug metabolism [2] | Drug metabolism [3] | Drug metabolism [4] | Drug metabolism [5] | Drug metabolism [6] | Drug metabolism [7] | Drug metabolism [10] | Drug metabolism [11] | Drug metabolism [12] | Drug metabolism [13] | Drug metabolism [14]
